Drawing on ChEMBL document CHEMBL1158057, “Hydroxylated gedunin derivatives from Cedrela sinensis” (J Nat Prod, 2006), this text covers IC50 for nine compounds.

In brackets after ≈: the same amount, converted by molar mass. Some results are limits rather than exact numbers.

The test concerns P388. As to the kind of experiment: Cytotoxicity against mouse P388 cells. It is filed as functional, cell-based.

`CC1(C)C(=O)C=C[C@]2(C)[C@H]3CC[C@@]4(C)[C@H](c5ccoc5)OC(=O)[C@H]5O[C@]54[C@]3(C)[C@H](O)C[C@@H]12` [DEACETYLGEDUNIN] yielded an IC50 of 4.5 µg/mL (≈ 10.2 µM). As for `CC1(C)C(=O)C=C[C@]2(C)[C@H]3[C@H](O)C[C@@]4(C)[C@H](c5ccoc5)OC(=O)[C@H]5O[C@]54[C@]3(C)[C@H](O)C[C@@H]12`, the figure is > 100 µg/mL. In the case of `CC(=O)O[C@@H]1C[C@H]2C(C)(C)C(=O)C=C[C@]2(C)[C@H]2[C@@H](O)C[C@@]3(C)[C@H](c4ccoc4)OC(=O)[C@H]4O[C@]43[C@@]21C`, the IC50 was 5.4 µg/mL (≈ 10.8 µM). As for `CC(=O)O[C@@H]1C[C@H]2C(C)(C)C(=O)C=C[C@]2(C)[C@H]2CC[C@@]3(C)[C@H](c4ccoc4)OC(=O)[C@H]4O[C@]43[C@@]21C` [GEDUNIN], the figure is 3.3 µg/mL (≈ 6.84 µM); as for `CC(=O)O[C@@H]1C[C@H]2C(C)(C)C(=O)C=C[C@]2(C)[C@H]2[C@H](O)C[C@@]3(C)[C@H](c4ccoc4)OC(=O)[C@H]4O[C@]43[C@@]21C`, 71 µg/mL (≈ 142 µM). In turn, `CC1(C)C(=O)C=C[C@]2(C)[C@H]3[C@@H](O)C[C@@]4(C)[C@H](c5ccoc5)OC(=O)[C@H]5O[C@]54[C@]3(C)[C@H](O)C[C@@H]12` had an IC50 of 7.8 µg/mL (≈ 17.1 µM). As to `CC(=O)O[C@H]1C[C@@]2(C)[C@H](c3ccoc3)OC(=O)[C@H]3O[C@]32[C@@]2(C)[C@H]1[C@@]1(C)C=CC(=O)C(C)(C)[C@@H]1C[C@H]2OC(C)=O`, the IC50 is 3.8 µg/mL (≈ 7.03 µM). Under `CC(=O)O[C@@H]1C[C@@]2(C)[C@H](c3ccoc3)OC(=O)[C@H]3O[C@]32[C@@]2(C)[C@H]1[C@@]1(C)C=CC(=O)C(C)(C)[C@@H]1C[C@H]2OC(C)=O` stands 63 µg/mL (≈ 117 µM); under `CC(=O)O[C@@H]1C[C@H]2C(C)(C)C(=O)C=C[C@]2(C)[C@H]2C(=O)C[C@@]3(C)[C@H](c4ccoc4)OC(=O)[C@H]4O[C@]43[C@@]21C`, 3 µg/mL (≈ 6.04 µM).

Broadly, the IC50 is the midpoint of a concentration-inhibition curve. Low readings indicate inhibition by little substance, high ones a need for much substance.
